Here are results for 10 molecules from PMC4015874, “Effects of Allium victorialis leaf extracts and its single compounds on aldose reductase, advanced glycation end products and TGF-β1 expression in mesangial cells” (BMC Complementary and Alternative Medicine, 2013).

Each structure is given as a SMILES string. “Also recorded” adds a separate entry of the source. A value given as a limit tells only on which side of the number the result lay.

The test system of one assay is AGEs formation. Description: AGEs formation assay (BSA with fructose and glucose, fluorescence). In kind it is biochemical. The settings on record: BSA with 0.2 M fructose and glucose, 37°C, 7 days. How it is done:
AGEs formation assay was performed as previously described. Bovine serum albumin (BSA, 10 mg/ml, Sigma-Aldrich) in 50mM phosphate buffer (pH 7.4) with containing 0.02% sodium azide to prevent bacterial growth was added to 0.2 M fructose and glucose. The reaction mixture was then mixed with compounds or aminoguanidine (AG, Sigma-Aldrich). After incubating at 37°C for 7 days, the fluorescent reaction products were assayed on a spectrofluorometric detector (BIO-TEK, Synergy HT, Ex: 350 nm/Em: 450 nm). AGEs assay was performed in quadruplicate.

Assay [1] has as its target T1, crude rat lens AR (aldose reductase) (Rattus norvegicus, UniProt P07943).
T1 construct: the supernatant was used as crude rat lens AR; from tissue; host or cells: lens of 8-week-old Sprague-Dawley rats (supernatant of the homogenate)
Description: Rat lens AR activity. In kind it is biochemical. How it is done: AR activity was measured as described previously. All animal procedures were approved by the Korea Institute of Oriental Medicine Institutional Animal Care Committee on animal care at our institute and conducted according to institutional guidelines. […] The homogenate was centrifuged at 14,000 rpm for 30 min, and the supernatant was used as crude rat lens AR. […] The reaction was initiated by the addition of NADPH at 37°C and stopped by the addition of 0.15 ml of 0.5 N HCl. Next, 0.5 ml of 6 M NaOH containing 10 mM imidazole was added, and the solution was heated at 60°C for 15 min to convert NADP to a fluorescent product.

A further assay has as its target T2, human RAGE (hRAGE) (Homo sapiens, UniProt Q15109).
T2 construct: expressed in transfected cells; host or cells: mouse kidney mesangial cells (MMCs) overexpressing hRAGE
Description: Live cell-based AGE-BSA/RAGE binding in hRAGE-overexpressing cells. The settings on record: hRAGE-overexpressing MMCs, Alexa Fluor 488-labeled AGE-BSA, 6 h. How it is done:
AGE-BSA/RAGE binding in the cells was determined as described previously. Briefly, Alexa 488 labeling of AGE-BSA was performed using the Alexa Fluor® 488 protein labeling kit (Molecular Probes, Eugene, OR). For the binding assay, human RAGE-overexpressing cells (1×10^4) were seeded onto a 96-well assay plate with a clear bottom lid and black plate (Corning, NY) and incubated with serum-free media for 24 h. Before binding, 3% BSA was added for 30 min to block non-specific binding. Cells were treated with 5 μg of Alexa Fluor 488-labeled AGE-BSA in a total volume of 100 μl serum-free medium and incubated in the dark for 6 h in a 5% CO2 humidified atmosphere at 37°C. Compounds were added after the addition of AGE-BSA-Alexa Fluor 488 to hRAGE-overexpressing cells. The non-specific binding of AGE-BSA-Alexa Fluor 488 to cell surface proteins other than hRAGE was compared by incubating cells with untreated cells (blank). After binding, 100 μl Opti-MEM were added to the washed plates, and the plates were then analyzed using a microtiter plate reader (Bio-Tek, Winooski, VT) with excitation and emission wavelengths of 485 and 528 nm, respectively.

Assay [2] relates to TGF-β1 mRNA expression in mouse kidney mesangial cells (MMCs). Nature of the assay: High glucose-induced TGF-β1 mRNA expression in MMCs (RT-PCR). It is filed as cell-based. The settings on record: high glucose 48 h, 10 μM compound. The method, then:
Mouse kidney mesangial cells (SV40 MES13, MMC) were obtained from the American Type Culture Collection (#CRL-1927, Rockville, MD) and cultured in Dulbecco's modified Eagle's medium:F-12 (3:1) supplemented with 14 mM HEPES, penicillin 100 U/ml, streptomycin 100 μg/ml, and 5% fetal bovine serum. Cells were routinely grown to confluence in a humidified 37°C, 5% CO2 incubator.
Total cellular RNA was extracted with TRIzol (Invitrogen, Carlsbad, CA), quantified by measuring the absorbance at 260 nm, and stored at -80°C until analysis. The expression of TGF-β1 and GAPDH mRNAs was detected by RT-PCR analysis. The extracted RNA (1 μg) was subjected to a reverse transcriptase reaction with the Maxime RT premix (Intron, Daejeon, Korea) at 42°C for 60 min and 72°C for 10 min. Subsequently, semi-quantitative PCR was performed with Accupower® PCR premix (Intron, Daejeon, Korea). The primer sequences were as follows: mouse TGF-β1 (sense) 5’- TGAACCAAGGAGACGGAATACAGG -3’, (anti-sense) 5'- GCCATGAGGAGCAGGAAGGG -3’ and mouse GAPDH (sense) 5’- ACGGCAAATTCAACGGCACAG -3’, (anti-sense) 5’- AGACTCCACGACATACTCAGCAC -3’. Aliquots of PCR products were electrophoresed on 1.2% agarose gels and visualized after ethidium bromide staining.

In assay [3] the test system is secreted TGF-β1 in mouse kidney mesangial cells (MMCs). Nature of the assay: High glucose-induced TGF-β1 secretion in MMCs (ELISA). The settings on record: high glucose 48 h, 10 μM compound, ELISA of medium. In kind it is cell-based. The method, then:
Mouse kidney mesangial cells (SV40 MES13, MMC) were obtained from the American Type Culture Collection (#CRL-1927, Rockville, MD) and cultured in Dulbecco's modified Eagle's medium:F-12 (3:1) supplemented with 14 mM HEPES, penicillin 100 U/ml, streptomycin 100 μg/ml, and 5% fetal bovine serum. Cells were routinely grown to confluence in a humidified 37°C, 5% CO2 incubator. The levels of TGF-β1 in the medium were determined as described previously. […] This medium was then harvested and TGF-β1 was activated by treatment with 1 N HCl (0.1 ml/0.5 ml of conditioned media) for 10 min at room temperature, then 0.1 ml 1.2 N NaOH/0.5 M HEPES was added. Quantikine mouse TGF-β1 ELISA (R&D systems, Minneapolis, MN) was performed according to the manufacturer’s protocol, and the TGF-β1 levels were normalized to those of total protein.
A general note: In an ELISA, binding on a coated surface is turned into a signal by an enzyme label.

T2 sequence (Q15109 23-404): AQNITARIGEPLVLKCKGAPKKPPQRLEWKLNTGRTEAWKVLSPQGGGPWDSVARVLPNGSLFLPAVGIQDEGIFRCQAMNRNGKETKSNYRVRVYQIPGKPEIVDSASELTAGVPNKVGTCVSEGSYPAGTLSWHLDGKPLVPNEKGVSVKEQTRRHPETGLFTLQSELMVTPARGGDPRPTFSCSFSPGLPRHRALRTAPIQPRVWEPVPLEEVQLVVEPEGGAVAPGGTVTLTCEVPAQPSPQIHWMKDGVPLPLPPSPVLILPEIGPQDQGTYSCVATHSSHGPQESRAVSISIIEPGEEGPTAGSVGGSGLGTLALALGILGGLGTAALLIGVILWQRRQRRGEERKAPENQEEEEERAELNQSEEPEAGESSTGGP

Regarding `N=C(N)NN` [Aminoguanidine, aminoguanidine, reference compound], in the assay with AGEs formation, the “AGEs IC50” value is 76.47 ± 4.81 µg/mL and the IC50 (as a rule, the midpoint of a concentration-inhibition curve) worked out at 1030 ± 70 µM.
As for `O=c1c(O[C@@H]2O[C@H](CO)[C@@H](O)[C@H](O)[C@H]2O)c(-c2ccc(O[C@@H]3O[C@H](CO)[C@@H](O)[C@H](O)[C@H]3O)cc2)oc2cc(O[C@@H]3O[C@H](CO)[C@@H](O)[C@H](O)[C@H]3O)cc(O)c12` [Compound 1, Kaempferol 3,7,4’-O-β-D-triglucopyranoside], the IC50 in assay [1] (DL-glyceraldehyde substrate) was greater than 50 µM; in the assay on AGEs formation, greater than 100 µM.
Take `O=c1c(O[C@@H]2O[C@H](CO)[C@@H](O)[C@H](O)[C@H]2O)c(-c2ccc(O)cc2)oc2cc(O[C@@H]3O[C@H](CO)[C@@H](O)[C@H](O)[C@H]3O)cc(O)c12` [Compound 2, Kaempferol 3,7-O-β-D-diglucopyranoside]: the results for the IC50 (in assay [1] (DL-glyceraldehyde substrate); in the assay with AGEs formation) were greater than 50 µM and 56.4 ± 1.39 µM, respectively.
For `O=c1c(O[C@@H]2O[C@H](CO)[C@@H](O)[C@H](O)[C@H]2O)c(-c2ccc(O[C@@H]3O[C@H](CO)[C@@H](O)[C@H](O)[C@H]3O)cc2)oc2cc(O)cc(O)c12` [Compound 3, kaempferol 3,4’-O-β-D-diglucopyranoside], the IC50 was 9.77 ± 0.33 µM in assay [1] (DL-glyceraldehyde substrate) and 59.7 ± 1.22 µM in the assay on AGEs formation.
Take `C[C@@H]1O[C@@H](Oc2c(-c3ccc(O)c(O)c3)oc3cc(O)cc(O)c3c2=O)[C@H](O)[C@H](O)[C@H]1O` [Compound 4, quercitrin]: the “AR inhibitory potency compared with positive control TMG” value in assay [1] is recorded as “significantly more potent”. In addition, the IC50 in assay [1] (DL-glyceraldehyde substrate) was found to be 0.17 ± 0.1 µM; with AGEs formation it was 4.2 ± 0.04 µM. Besides, the “Inhibition of AGE-RAGE binding” value was “significantly inhibited” at human RAGE (hRAGE) and “disrupted AGE-RAGE binding in a concentration-dependent manner” at human RAGE (hRAGE) (listed as quercitrin).
Consider `O=c1c(O)c(-c2ccc(O)cc2)oc2cc(O)cc(O)c12` [Compound 5, kaempferol], for which, in assay [1], the “AR inhibitory potency compared with positive control TMG” value is reported as “significantly more potent”. In addition, the IC50 in assay [1] (DL-glyceraldehyde substrate) was 1.1 ± 0.63 µM; with AGEs formation it was 36 ± 1.4 µM.
For `O=c1c(O)c(-c2ccc(O)c(O)c2)oc2cc(O)cc(O)c12` [Compound 6, quercetin], the “AR inhibitory potency compared with positive control TMG” value in assay [1] was “significantly more potent”. The IC50 in the assay with AGEs formation is 27.1 ± 0.11 µM.
For the molecule `O=C(O)C=Cc1ccc(O)cc1` [Compound 7, 4-hydroxycinnamic acid], the IC50 was greater than 50 µM in assay [1] (DL-glyceraldehyde substrate) and 9.92 ± 0.11 µM with AGEs formation.
`COc1cc(/C=C/C(=O)O)ccc1O` [Compound 8, ferulic acid]: the values for the IC50 (in assay [1] (DL-glyceraldehyde substrate); in the assay on AGEs formation) were greater than 50 µM and 7.5 ± 0.2 µM, respectively. The “Inhibition of high glucose-induced TGF-β1 mRNA expression” value in assay [2] was “greatest inhibitory effect”; in assay [2] (listed as ferulic acid), “significantly reduced; also recorded: reduces”. Besides, in assay [3], the “Inhibition of high glucose-induced TGF-β1 secretion” value is on record as “significantly reduced; also recorded: reduces”.
For the molecule `O=C(O)CC1(CC(=O)O)CCCC1` [Tetramethyleneglutaric acid, 3,3-tetramethyleneglutaric acid, reference compound], in assay [1] (DL-glyceraldehyde substrate), the “AR IC50” value amounted to 0.94 ± 0.01 µg/mL and inhibition was half-maximal at 5.07 ± 0.06 µM (IC50).
